# Test results reported in patent US6858402B2 (The Regents of the University of California, priority 1996, dated 2005).
# Where “and” joins values, the source holds several entries; their conditions need not be identical. Equal entries are not always repeated. Numbered stars: 1 amine (or outer) side, 2 acyl side, 3 side chain; on linkers, the order of the positions; unused ones are H or OH. Bridge positions count the residues as written; N and C are the ends. Square brackets hold non-standard residues; d marks the D form. Peptide text beside a SMILES is read from it. I, II: the chains in the order shown. Actinocin(9to1) = Cc1c2oc3c(C)ccc(C(=O)[*:1])c3nc-2c(C(=O)[*:2])c(N)c1=O; NMeV = CN[C@H](C(=O)O)C(C)C; Sar = CNCC(=O)O
# Assays:
# THP-1 cells [1] = assay: Effect of inhibitors co-incubated with PMA on TRRE production; type: cell-based, human
# Excerpt: Several inhibitors including cycloheximide (Chx) (an inhibitor of protein synthesis), actinomycin D (ActD) (an inhibitor of RNA synthesis), N-ethylmaleimide (NEM) (an inhibitor of membrane internalization and movement), cytochalasin B (CytB) (an inhibitor of microfilament formation), and colchicine (Col) (an inhibitor of microtubule formation) were purchased from Sigma Chemical (St. Louis, Mo.). THP-1 cells at a density of 1×10^6 cells/ml in RPMI-1640/1% FCS with 10^−6 M PMA was co-stimulated along with 10 μg/ml Chx, 1 μg/ml ActD, 1 mM NEM, 0.1 mM CytB, or 0.1 mM Col for 30 min at 37° C. in 5% CO2. Following centrifugation at 400×g for 5 min, the supernatant was discarded and the cells were washed once with serum-free medium. The cells were incubated for an additional 2 hours at the same density (1×10^6 cells/ml) in PMA-free RPMI-1640 with corresponding inhibitors.
# sTNF-R = settings: Seitz et al. (1997); cited from earlier work
# TRRE = assay: Effect of protease inhibitors and divalent metal ions on partially-purified TRRE activity; type: biochemical, human; settings: for effect on TRRE activity: partially-purified TRRE
# Description: C75R cells and COS-1 cells were seeded into 24-well culture plates at a density of 2.5×10^5 cells/ml/well and incubated overnight (for 12 to 16 hours) in 5% CO2 at 37° C. […] (corresponding to A and C mentioned below, respectively). Simultaneously, C75R cells in 24-well plates were also incubated with 300 μl of fresh medium or buffer (corresponding to B mentioned below).
# The precipitate was pelleted by centrifugation at 10,000×g for 30 min and resuspended in PBS in approximately twice the volume of the pellet. This solution was then dialyzed at 4° C. against 10 mM Tris-HCl, 60 mM NaCl, pH 7.0. This sample was loaded on an anion-exchange chromatography, Diethylaminoethyl (DEAE)-Sephadex A-25 column (Pharmacia Biotech) (2.5×10 cm) previously equilibrated with 50 mM Tris-HCl, 60 mM NaCl, pH 8.0.
# Protease inhibitors were purchased from Sigma Chemical (St. Louis, Mo.), including phenylmethylsulfonyl fluoride (PMSF), 4-(2-aminoethyl)-benzenesulfonyl fluoride (AEBSF), 3,4-dichloroisocoumarin (3,4-DCI), N-α-tosyl-L-lysine chloromethyl ketone (TLCK), N-tosyl-L-phenylalanine chloromethyl ketone (TPCK), ethylenediaminetetraacetic acid (EDTA), ethyleneglycol bis (2-aminoethyl ether) tetraacetic acid (EGTA), 1,10-phenanthroline, and phosphoramidon. These inhibitors can be divided into the following classes: (i) serine protease inhibitors (4 mM PMSF, 0.5 mM AEBSF, and 0.1 mM 3,4-DCI); (ii) serine and cysteine protease inhibitors (0.1 mM TLCK and TPCK); (iii) chelating agents (2 mM EDTA, EGTA, and 1,10-phenanthroline); (iv) a metallo-endoprotease inhibitor (0.5 mM phosphoramidon); and (v) divalent heavy metal ions (2 mM CaCl2, MgCl2, MnCl2, ZnCl2, CoCl2, CuCl2, and FeCl2). […] The percent activity remaining (% control) was expressed relative to the control.
# The percent activity remaining (% control) was calculated as above.
# THP-1 cells [2] = assay: Induction of TRRE by cytokines and hormones; type: cell-based, human; settings: 2 hours stimulation, insulin 10^−7 M, IL-1β 10 ng/ml, IL-6 100 ng/ml; for induction of TRRE activity: IL-10 100 ng/ml, epinephrine 10^−6 M
# THP-1 cells [3] = assay: Effect of inhibitors co-incubated with PMA on TRRE production; type: cell-based, human; settings: inhibitor 0.01 mM with 10^−6 M PMA
# [4] = system: Lipopolysaccharide-induced shock; settings: Yamamoto et al. (1997); cited from earlier work
# [5] = target: TNF-R on L929 cells (murine); assay: cell-based or functional assay
# [6] = target: human p75 TNF-R (membrane-bound, on C75R transfected COS-1 cells or on THP-1 cells) (human) (UniProt P20333); assay: cell-based or functional assay
# Chain of human p75 TNF-R (membrane-bound, on C75R transfected COS-1 cells or on THP-1 cells) (human) (P20333 23-461 C75R limits assumed): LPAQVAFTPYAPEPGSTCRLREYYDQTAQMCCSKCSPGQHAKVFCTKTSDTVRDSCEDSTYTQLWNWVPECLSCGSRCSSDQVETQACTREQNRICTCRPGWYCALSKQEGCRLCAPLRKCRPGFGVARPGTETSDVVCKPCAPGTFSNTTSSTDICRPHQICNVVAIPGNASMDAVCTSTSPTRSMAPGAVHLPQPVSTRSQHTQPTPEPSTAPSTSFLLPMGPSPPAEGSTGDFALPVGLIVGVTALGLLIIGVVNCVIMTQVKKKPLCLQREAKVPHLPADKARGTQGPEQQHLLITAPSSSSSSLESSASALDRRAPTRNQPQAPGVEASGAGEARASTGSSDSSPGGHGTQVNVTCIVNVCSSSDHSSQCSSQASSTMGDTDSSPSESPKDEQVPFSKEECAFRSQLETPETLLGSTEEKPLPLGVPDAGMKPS
# [7] = target: human p55 TNF-R (on THP-1 cells) (human) (UniProt P19438); assay: cell-based or functional assay
# Chain of human p55 TNF-R (on THP-1 cells) (human) (P19438 30-455): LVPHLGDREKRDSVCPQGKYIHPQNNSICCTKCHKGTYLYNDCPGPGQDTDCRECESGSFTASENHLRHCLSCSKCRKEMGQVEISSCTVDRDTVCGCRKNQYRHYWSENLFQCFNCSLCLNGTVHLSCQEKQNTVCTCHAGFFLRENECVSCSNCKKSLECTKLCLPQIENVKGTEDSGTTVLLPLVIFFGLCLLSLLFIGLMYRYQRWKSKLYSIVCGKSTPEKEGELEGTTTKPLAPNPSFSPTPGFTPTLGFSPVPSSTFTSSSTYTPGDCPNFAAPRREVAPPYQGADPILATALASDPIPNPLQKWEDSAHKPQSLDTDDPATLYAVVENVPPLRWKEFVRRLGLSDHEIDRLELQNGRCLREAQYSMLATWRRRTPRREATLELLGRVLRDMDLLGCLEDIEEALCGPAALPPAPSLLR
# [8] = target: human soluble p75 TNF-R (human) (UniProt P20333); assay: soluble p75 TNF-R-Affigel 10 affinity chromatography of TRRE after reaction with C75R cells; TRRE activity assay of fractions
# Chain of human soluble p75 TNF-R (human) (P20333 23-257): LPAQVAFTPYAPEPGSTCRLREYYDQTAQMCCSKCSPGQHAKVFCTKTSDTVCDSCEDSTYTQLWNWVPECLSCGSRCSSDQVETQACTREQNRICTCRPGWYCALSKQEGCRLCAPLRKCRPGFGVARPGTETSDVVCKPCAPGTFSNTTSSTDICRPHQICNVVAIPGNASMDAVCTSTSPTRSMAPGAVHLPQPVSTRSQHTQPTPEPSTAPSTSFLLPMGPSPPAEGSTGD
# [9] = inhibitor 1 mM with 10^−6 M PMA
# [10] = 0.5 mM, preincubated 37° C. 30 min (Table 5)
# [11] = inhibitor 0.1 mM with 10^−6 M PMA
# [12] = 2 mM, preincubated 37° C. 30 min (Table 5)
# [13] = 0.1 mM, preincubated 37° C. 30 min (Table 5)
molecule,measurement,setting,value
"CCN1C(=O)C=CC1=O [N-ethyl-maleimide, N-ethylmaleimide]",% of TRRE production,THP-1 cells [1]; [9],17%
CCCCC[C@H](O)/C=C/[C@H]1[C@H](O)CC(=O)[C@@H]1C/C=C\CCCC(=O)O [prostaglandin E2],sTNF-R shedding,sTNF-R,not affected
"NCCc1ccc(S(=O)(=O)F)cc1 [AEBSF, 4-(2-aminoethyl)-benzenesulfonyl fluoride]",% Control of TRRE activity,TRRE; [10],92 ± 8%
same,effect on TRRE activity,TRRE,no effect
IL-6: cytokine,induction of TRRE activity,THP-1 cells [2],no apparent TRRE activity
same,induction of sTNF-R,THP-1 cells [2],induced sTNF-R
"C[C@@H]1C[C@@H]([C@H](O)CC2CC(=O)NC(=O)C2)C(=O)[C@@H](C)C1 [Cycloheximide, cycloheximide]",% of TRRE production,THP-1 cells [1]; inhibitor 10 μg/ml with 10^−6 M PMA,97%
same,% of TRRE production,"THP-1 cells [1]; inhibitor 10 μg/ml with 10^−6 M PMA, listed as Chx",104%
"COc1cc2c(c(OC)c1OC)-c1ccc(OC)c(=O)cc1[C@@H](NC(C)=O)CC2 [Colchicine, colchicine]",% of TRRE production,THP-1 cells [1]; [11],111%
same,% of TRRE production,THP-1 cells [1]; [9],125%
same,% of TRRE production,THP-1 cells [3],95%
"c1cnc2c(c1)ccc1cccnc12 [1,10-Phenanthroline, 1,10-phenanthroline]",% Control of TRRE activity,TRRE; 2 mM (Table 6),47 ± 9%
same,% Control of TRRE activity,TRRE; [12],41 ± 6%
same,% Control of TRRE activity,"TRRE; 2 mM, preincubated 37° C. 30 min (Table 5), listed as 1,10-phenanthroline",41%
"[Cl-].[Cl-].[Co+2] [Co^2+, CoCl2]",% Control of TRRE activity,TRRE; [12],123% and 123 ± 15%
"Cc1c2oc3c(C)ccc(C(=O)N[C@@H]4C(=O)N[C@H](C(C)C)C(=O)N5CCC[C@H]5C(=O)N(C)CC(=O)N(C)[C@@H](C(C)C)C(=O)O[C@@H]4C)c3nc-2c(C(=O)N[C@@H]2C(=O)N[C@H](C(C)C)C(=O)N3CCC[C@H]3C(=O)N(C)CC(=O)N(C)[C@@H](C(C)C)C(=O)O[C@@H]2C)c(N)c1=O [Actinomycin D, actinomycin D] (I: T[dV]P[Sar][NMeV] / II: T[dV]P[Sar][NMeV]; ester I:1-I:C, II:1-II:C; linker I:N-II:N via Actinocin(9to1))",% of TRRE production,THP-1 cells [1]; inhibitor 1 μg/ml with 10^−6 M PMA,104%
same,% of TRRE production,"THP-1 cells [1]; inhibitor 1 μg/ml with 10^−6 M PMA, listed as ActD",97%
CNC[C@H](O)c1ccc(O)c(O)c1 [epinephrine],induction of TRRE activity,THP-1 cells [2],induced TRRE activity
gold sodium thiomalate,sTNF-R shedding,sTNF-R,not affected
"O=c1oc(Cl)c(Cl)c2ccccc12 [3,4-DCI, 3,4-dichloroisocoumarin]",% Control of TRRE activity,TRRE; [13],108 ± 4%
same,effect on TRRE activity,TRRE,no effect
IL-1β: cytokine,induction of TRRE activity,THP-1 cells [2],no apparent TRRE activity
same,induction of sTNF-R,THP-1 cells [2],induced sTNF-R
"[Cl][Cu][Cl] [Cu^2+, CuCl2]",% Control of TRRE activity,TRRE; [12],47% and 47 ± 21%
"O=C(O)CN(CCN(CC(=O)O)CC(=O)O)CC(=O)O [EDTA, ethylenediaminetetraacetic acid]",% Control of TRRE activity,TRRE; [12],67% and 67 ± 7%
"C=C1[C@@H](C)[C@H]2[C@H](Cc3ccccc3)NC(=O)[C@]23OC(=O)/C=C/[C@H](O)CCC[C@@H](C)C/C=C/[C@H]3[C@@H]1O [Cytochalasin B, cytochalasin B]",% of TRRE production,THP-1 cells [1]; [11],91%
same,% of TRRE production,THP-1 cells [3],103%
O=C(C(=O)N1CCn2nc(-c3ccc(F)cc3)c(-c3ccncc3)c2N1)c1ccccc1.O=S(=O)(O)O [FR167653],Lipopolysaccharide-induced shock,[4],ameliorated
"TNF receptor releasing enzyme (TRRE), from PMA-stimulated THP-1 cells","ratio of surviving L929 cells with 4 ng/ml TNF to cells without TNF, pretreated with 100 U/ml TRRE (control without TRRE: 24%)",[5],30%
same,"ratio of surviving L929 cells with 4 ng/ml TNF to cells without TNF, pretreated with 500 U/ml TRRE (control without TRRE: 24%)",[5],38%
same,"ratio of surviving L929 cells with 4 ng/ml TNF to cells without TNF, pretreated with 2,500 U/ml TRRE (control without TRRE: 24%)",[5],74%
same,"cell surface expression on THP-1 cells after 5,000 U/ml TRRE (flow cytometry, percent control of MFI)",[6],49 % control
same,"soluble p75 TNF-R released from THP-1 cells (ELISA) after 1,000 U/ml TRRE for 30 min",[6],1660 pg/mL
same,"cell surface expression on THP-1 cells after 5,000 U/ml TRRE (flow cytometry, percent control of MFI)",[7],8 % control
same,"soluble p55 TNF-R released from THP-1 cells (ELISA) after 1,000 U/ml TRRE for 30 min",[7],2380 pg/mL
same,percent of recovered TRRE activity in the elution of the soluble p75 TNF-R affinity column,[8],25%
same,percent of recovered TRRE activity in the flow through of the soluble p75 TNF-R affinity column (not retained),[8],53%
same,percent of recovered TRRE activity in the wash of the soluble p75 TNF-R affinity column (not retained),[8],22%
"Cc1ccc(S(=O)(=O)N[C@@H](CCCCN)C(=O)CCl)cc1 [TLCK, N-α-tosyl-L-lysine chloromethyl ketone]",% Control of TRRE activity,TRRE; [13],108 ± 5%
same,effect on TRRE activity,TRRE,no effect
"O=C(O)CN(CCOCCOCCN(CC(=O)O)CC(=O)O)CC(=O)O [EGTA, ethyleneglycol bis (2-aminoethyl ether) tetraacetic acid]",% Control of TRRE activity,TRRE; [12],73% and 73 ± 4%
"[Cl-].[Cl-].[Mg+2] [Mg^2+, MgCl2]",% Control of TRRE activity,TRRE; [12],127% and 127 ± 9%
N-tosyl-L-phenylalanine chloromethyl ketone [TPCK],% Control of TRRE activity,TRRE; [13],107 ± 7%
same,effect on TRRE activity,TRRE,no effect
"[Cl-].[Cl-].[Zn+2] [Zn^2+, ZnCl2]",% Control of TRRE activity,TRRE; 0.1 mM (Table 6),122±6%
same,% Control of TRRE activity,TRRE; [12],23% and 23 ± 15%
"[Cl][Mn][Cl] [Mn^2+, MnCl2]",% Control of TRRE activity,TRRE; [12],157% and 157 ± 33%
"O=S(=O)(F)Cc1ccccc1 [PMSF, phenylmethylsulfonyl fluoride]",% Control of TRRE activity,"TRRE; 4 mM, preincubated 37° C. 30 min (Table 5)",116 ± 4%
same,effect on TRRE activity,TRRE,no effect
"CC(C)C[C@H](NP(=O)(O)O[C@@H]1O[C@@H](C)[C@H](O)[C@@H](O)[C@H]1O)C(=O)N[C@@H](Cc1c[nH]c2ccccc12)C(=O)O [Phosphoramidon, phosphoramidon]",% Control of TRRE activity,TRRE; [10],84 ± 13%
insulin: hormone,induction of TRRE activity,THP-1 cells [2],no apparent TRRE activity
same,induction of sTNF-R,THP-1 cells [2],induced sTNF-R
"[Ca+2].[Cl-].[Cl-] [Ca^2+, CaCl2]",% Control of TRRE activity,TRRE; [12],151% and 151 ± 23%
same,% Control of TRRE activity,TRRE; 4 mM (Table 6),189±4%
"[Cl][Fe][Cl] [Fe^2+, FeCl2]",% Control of TRRE activity,TRRE; [12],98 ± 8%
"IL-10: cytokine (protein, UniProt P22301 19-178, looked up) Interleukin-10: SPGQGTQSENSCTHFPGNLPNMLRDLRDAFSRVKTFFQMKDQLDNLLLKESLLEDFKGYLGCQALSEMIQFYLEEVMPQAENQDPDIKAHVNSLGENLKTLRLRLRRCHRFLPCENKSKAVEQVKNAFNKLQEKGIYKAMSEFDIFINYIEAYMTMKIRN",induction of TRRE activity,THP-1 cells [2],induced TRRE activity
